pIC50: −log10 of the molar value. In brackets after ≈: the same amount, converted by molar mass.
How the values were obtained:
[1] = system: Staphylococcus aureus; assay: Antibacterial activity against Staphylococcus aureus NRRL B-767 assessed as growth inhibition by CLSI broth microdilution method; type: functional
[2] = system: Pseudomonas aeruginosa; assay: Antibacterial activity against Pseudomonas aeruginosa ATCC 254992 assessed as growth inhibition by CLSI broth microdilution method; type: functional
[3] = system: Escherichia coli; assay: Antibacterial activity against Escherichia coli ATCC 25922 assessed as growth inhibition by CLSI broth microdilution method; type: functional
[4] = system: Candida albicans; assay: Antifungal activity against Candida albicans assessed as growth inhibition by CLSI broth microdilution method; type: functional
[5] = system: Enterococcus faecalis; assay: Antibacterial activity against Enterococcus faecalis ATCC 29212 assessed as growth inhibition by CLSI broth microdilution method; type: functional
[6] = system: C6; assay: Cytotoxicity against Rattus norvegicus (rat) C6 cells assessed as cell viability after 24 hr by MTT assay; type: functional, cell-based; details: C6, 24 h
[7] = system: HT-29; assay: Cytotoxicity against Homo sapiens (human) HT-29 cells assessed as cell viability after 24 hr by MTT assay; type: functional, cell-based; details: HT-29, 24 h
[8] = system: HT-29; assay: Inhibition of nuclear DNA synthesis in Homo sapiens (human) HT-29 cells assessed as decrease in incorporation of bromo deoxyuridine during S phase of cell cycle after 24 to 48 hr by colorimetric method; type: cell-based
[9] = system: C6; assay: Inhibition of nuclear DNA synthesis in Rattus norvegicus (rat) C6 cells assessed as decrease in incorporation of bromo deoxyuridine during S phase of cell cycle at 0.8 to 3.2 uM by colorimetric method; type: cell-based; details: TDE = time-dependent effect
[10] = system: C6; assay: Inhibition of nuclear DNA synthesis in Rattus norvegicus (rat) C6 cells assessed as decrease in incorporation of bromo deoxyuridine during S phase of cell cycle after 24 to 48 hr by colorimetric method; type: cell-based
[11] = system: HT-29; assay: Inhibition of nuclear DNA synthesis in Homo sapiens (human) HT-29 cells assessed as decrease in incorporation of bromo deoxyuridine during S phase of cell cycle at 3.2 uM after 48 hr by colorimetric method relative to untreated control; type: cell-based
[12] = system: HT-29; assay: Inhibition of nuclear DNA synthesis in Homo sapiens (human) HT-29 cells assessed as decrease in incorporation of bromo deoxyuridine during S phase of cell cycle at 0.8 to 3.2 uM by colorimetric method; type: cell-based; details: TDE = time-dependent effect
[13] = system: C6; assay: Inhibition of nuclear DNA synthesis in Rattus norvegicus (rat) C6 cells assessed as decrease in incorporation of bromo deoxyuridine during S phase of cell cycle at 3.2 uM after 24 hr by colorimetric method relative to untreated control; type: cell-based
[14] = system: C6; assay: Inhibition of nuclear DNA synthesis in Rattus norvegicus (rat) C6 cells assessed as decrease in incorporation of bromo deoxyuridine during S phase of cell cycle at 3.2 uM after 48 hr by colorimetric method relative to untreated control; type: cell-based

SMILES | MIC [1] [µg/mL] | MIC [2] [µg/mL] | MIC [3] [µg/mL] | MIC [4] [µg/mL] | MIC [5] [µg/mL] | pIC50 [6] | pIC50 [7] | inhibition [8] | inhibition [9] | inhibition [10] | inhibition [11] [%] | inhibition [12] | inhibition [13] [%] | inhibition [14] [%]
Cc1cc(NC(=O)CSc2nc[nH]n2)no1 | 200 (≈ 836 µM) | 100 (≈ 418 µM) | 400 (≈ 1670 µM) | 100 (≈ 418 µM) | 400 (≈ 1670 µM) | 5.50 | 5.95 | – | – | – | – | – | – | –
Cc1cc(NC(=O)CSc2nnnn2C)no1 | 200 (≈ 787 µM) | 100 (≈ 393 µM) | 400 (≈ 1570 µM) | 100 (≈ 393 µM) | 400 (≈ 1570 µM) | 5.92 | – | – | – | – | – | – | – | –
Cc1cc(NC(=O)CSc2nncn2C)no1 | 200 (≈ 790 µM) | 100 (≈ 395 µM) | 400 (≈ 1580 µM) | 100 (≈ 395 µM) | 400 (≈ 1580 µM) | 5.83 | 5.99 | – | – | – | – | – | – | –
O=C(N[C@H](CO)[C@H](O)c1ccc([N+](=O)[O-])cc1)C(Cl)Cl [CHLORAMPHENICOL] | 50 (≈ 155 µM) | 50 (≈ 155 µM) | 100 (≈ 309 µM) | – | 100 (≈ 309 µM) | – | – | – | – | – | – | – | – | –
Cc1cc(NC(=O)CSc2nccn2C)no1 | 200 (≈ 793 µM) | 200 (≈ 793 µM) | 400 (≈ 1590 µM) | 100 (≈ 396 µM) | 400 (≈ 1590 µM) | 5.85 | 5.95 | – | – | – | – | – | – | –
CC(=O)N1CCN(c2ccc(OCC3COC(Cn4ccnc4)(c4ccc(Cl)cc4Cl)O3)cc2)CC1 (stereo not given) [KETOCONAZOLE] | – | – | – | 100 (≈ 188 µM) | – | – | – | – | – | – | – | – | – | –

Continued, in another order:

MIC [1] [µg/mL] | MIC [2] [µg/mL] | MIC [3] [µg/mL] | MIC [4] [µg/mL] | MIC [5] [µg/mL] | SMILES | pIC50 [6] | pIC50 [7] | inhibition [8] | inhibition [9] | inhibition [10] | inhibition [11] [%] | inhibition [12] | inhibition [13] [%] | inhibition [14] [%]
200 (≈ 805 µM) | 200 (≈ 805 µM) | 400 (≈ 1610 µM) | 200 (≈ 805 µM) | 400 (≈ 1610 µM) | Cc1cc(NC(=O)CSc2ccccc2)no1 | – | – | – | – | – | – | – | – | –
200 (≈ 740 µM) | 200 (≈ 740 µM) | 400 (≈ 1480 µM) | 100 (≈ 370 µM) | 400 (≈ 1480 µM) | Cc1cc(NC(=O)CSc2nnc(C)s2)no1 | 6.24 | 6.17 | – | – | – | – | – | – | –
200 (≈ 691 µM) | 200 (≈ 691 µM) | 400 (≈ 1380 µM) | 200 (≈ 691 µM) | 400 (≈ 1380 µM) | Cc1cc(NC(=O)CSc2nc3ccccc3o2)no1 | 6.36 | 6.66 | Dose-dependent effect | tde | Dose-dependent effect | 80 | tde | > 50 | 70
200 (≈ 632 µM) | 100 (≈ 316 µM) | 400 (≈ 1260 µM) | 100 (≈ 316 µM) | 400 (≈ 1260 µM) | Cc1cc(NC(=O)CSc2nnnn2-c2ccccc2)no1 | 6.19 | 6.13 | – | – | – | – | – | – | –
200 (≈ 694 µM) | 200 (≈ 694 µM) | 400 (≈ 1390 µM) | 200 (≈ 694 µM) | 400 (≈ 1390 µM) | Cc1cc(NC(=O)CSc2nc3ccccc3[nH]2)no1 | 7.00 | 7.05 | Dose-dependent effect | tde | Dose-dependent effect | 80 | tde | > 50 | 70
200 (≈ 655 µM) | 200 (≈ 655 µM) | 400 (≈ 1310 µM) | 200 (≈ 655 µM) | 400 (≈ 1310 µM) | Cc1cc(NC(=O)CSc2nc3ccccc3s2)no1 | 6.68 | 6.40 | Dose-dependent effect | tde | Dose-dependent effect | – | tde | – | –
